In ChEMBL document CHEMBL1201862, “PubChem BioAssay data set” (2004):
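Assay format: 96-well plates, 48-hour exposure. At the GI50, growth is halved.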 The source made the active and inactive calls. Cut-off read from the data, not from the text of the source: active = GI50 up to about 1.1 µM and inactive = higher.

Experiments:
Assay in all cases: growth of human tumour cells (NCI), 48 h
CAKI-1 = system: CAKI-1
M14 = system: M14
A549 = system: A549
SW-620 = system: SW-620
NCI/ADR-RES = system: NCI/ADR-RES
NCI-H226 = system: NCI-H226
OVCAR-5 = system: OVCAR-5
CCRF-CEM = system: CCRF-CEM
MOLT-4 = system: MOLT-4
KM12 = system: KM12
HL-60 = system: HL-60
HOP-62 = system: HOP-62
UACC-62 = system: UACC-62
RXF 393 = system: RXF 393
DU-145 = system: DU-145
MDA-MB-231 = system: MDA-MB-231
UACC-257 = system: UACC-257
UO-31 = system: UO-31
LOX IMVI = system: LOX IMVI
Malme-3M = system: Malme-3M

Measured: GI50

CSc1nn(C)cc2ncnc1-2
inactive: CAKI-1 > 100 µM | M14 > 100 µM | A549 > 100 µM | SW-620 > 100 µM | NCI/ADR-RES > 100 µM | NCI-H226 > 100 µM | OVCAR-5 > 100 µM | CCRF-CEM > 100 µM | MOLT-4 > 100 µM | KM12 > 100 µM | HL-60 > 100 µM | HOP-62 > 100 µM | UACC-62 > 100 µM | RXF 393 > 100 µM | DU-145 > 100 µM | MDA-MB-231 > 100 µM | UACC-257 > 100 µM | UO-31 > 100 µM

O=C1CCCN1C(=O)CS(=O)(=O)c1ccccc1
inactive: CAKI-1 > 100 µM | LOX IMVI > 100 µM | Malme-3M > 100 µM | M14 > 100 µM | A549 > 100 µM | SW-620 > 100 µM | NCI/ADR-RES > 100 µM | NCI-H226 > 100 µM | OVCAR-5 > 100 µM | CCRF-CEM > 100 µM | MOLT-4 > 100 µM | KM12 > 100 µM | HOP-62 > 100 µM | UACC-62 > 100 µM | RXF 393 > 100 µM | DU-145 > 100 µM | MDA-MB-231 > 100 µM | UACC-257 > 100 µM | UO-31 > 100 µM

COc1ccc(/C=N/NC(=O)c2ccccc2Nc2ccccc2C(=O)N/N=C/c2ccc(OC)cc2)cc1
inactive: CAKI-1 > 100 µM | LOX IMVI > 100 µM | Malme-3M > 100 µM | M14 > 100 µM | A549 > 100 µM | SW-620 > 100 µM | NCI/ADR-RES > 100 µM | NCI-H226 > 100 µM | OVCAR-5 > 100 µM | CCRF-CEM > 100 µM | MOLT-4 > 100 µM | KM12 > 100 µM | HOP-62 > 100 µM | UACC-62 > 100 µM | RXF 393 > 100 µM | DU-145 > 100 µM | MDA-MB-231 65.6 µM | UACC-257 > 100 µM | UO-31 > 100 µM

N/C(=N\N=C\c1cc2ccccc2s1)c1cnccn1
inactive: CAKI-1 > 100 µM | LOX IMVI > 100 µM | M14 > 100 µM | A549 > 100 µM | SW-620 > 100 µM | NCI/ADR-RES > 100 µM | NCI-H226 > 100 µM | OVCAR-5 > 100 µM | CCRF-CEM 53.3 µM | KM12 > 100 µM | HL-60 > 100 µM | HOP-62 > 100 µM | UACC-62 > 100 µM | RXF 393 > 100 µM | DU-145 > 100 µM | MDA-MB-231 82.6 µM | UACC-257 > 100 µM | UO-31 > 100 µM

NC(=O)CC(N)C(=O)NC(Cc1ccccc1)C(=O)NC(Cc1ccccc1)NC(=O)C(Cc1c[nH]c2ccccc12)C(=O)O (stereo not drawn)
inactive: CAKI-1 > 100 µM | LOX IMVI > 100 µM | Malme-3M > 100 µM | M14 > 100 µM | A549 > 100 µM | SW-620 > 100 µM | NCI/ADR-RES > 100 µM | NCI-H226 > 100 µM | OVCAR-5 > 100 µM | CCRF-CEM > 100 µM | MOLT-4 > 100 µM | KM12 > 100 µM | HOP-62 > 100 µM | UACC-62 > 100 µM | RXF 393 > 100 µM | DU-145 > 100 µM | MDA-MB-231 > 100 µM | UACC-257 > 100 µM | UO-31 > 100 µM

O=C1CC(c2ccsc2)n2cccc21 (stereo not drawn)
inactive: CAKI-1 > 100 µM | M14 > 100 µM | A549 > 100 µM | SW-620 > 100 µM | NCI/ADR-RES > 100 µM | NCI-H226 > 100 µM | OVCAR-5 > 100 µM | CCRF-CEM > 100 µM | MOLT-4 > 10 µM | KM12 > 100 µM | HL-60 > 100 µM | HOP-62 > 100 µM | UACC-62 > 100 µM | RXF 393 > 100 µM | DU-145 > 100 µM | MDA-MB-231 > 100 µM | UACC-257 > 100 µM | UO-31 > 100 µM

C=C(C)CCC1CC=[N+]([O-])OC1C(C)(C)C (stereo not drawn)
inactive: CAKI-1 26.2 µM | LOX IMVI 18.5 µM | M14 21.1 µM | A549 20.9 µM | SW-620 44.5 µM | NCI/ADR-RES 27.3 µM | NCI-H226 15.5 µM | OVCAR-5 > 100 µM | CCRF-CEM 11.4 µM | MOLT-4 39.2 µM | KM12 28.2 µM | HL-60 2.65 µM | HOP-62 79.3 µM | UACC-62 36.3 µM | RXF 393 18.2 µM | DU-145 37.4 µM | MDA-MB-231 26.8 µM | UACC-257 58.6 µM | UO-31 30.3 µM

COc1cc(C(=O)C2C(=O)c3ccccc3C2C2(O)c3ccccc3CC2C(O)c2cc(OC)c(OC)c(OC)c2)cc(OC)c1OC (stereo not drawn)
inactive: CAKI-1 > 100 µM | LOX IMVI > 100 µM | Malme-3M > 100 µM | M14 > 100 µM | A549 > 100 µM | SW-620 > 100 µM | NCI/ADR-RES > 100 µM | NCI-H226 > 100 µM | OVCAR-5 > 100 µM | MOLT-4 > 100 µM | KM12 > 100 µM | HOP-62 17.6 µM | UACC-62 > 100 µM | RXF 393 > 100 µM | DU-145 > 100 µM | MDA-MB-231 94.2 µM | UACC-257 > 100 µM | UO-31 > 100 µM
